From patent US20240307325A1, “COMPOUNDS, COMPOSITIONS, AND METHODS FOR TREATING OR AMELIORATING NONALCOHOLIC FATTY LIVER DISEASE AND RELATED DISEASES OR DISORDERS” (Thomas Jefferson University, priority 2021, published 2024)

What was measured:
HFD fed mice = experiment: High fat diet-induced hepatic steatosis and whitening of brown adipose tissue in mice; type: in vivo; conditions: versus vehicle, H&E staining
Description: FIG. 6A illustrate certain aspects of the study design. […] FIG. 6B show H&E staining images of liver from mice in FIG. 6A. […] Representative images from H&E-stained BAT of mice after an 8-week HFD. Images taken at 14×, scalebar=200 um.
(§1) Refer to FIGS. 5 and 6A-6C, pharmacological inhibition of Sigma1 phenocopy certain aspects of Sigma1 knockdown. […] The small molecule inhibitor IPAG also eliminate oleic acid, cholesterol, and glucose induced lipid droplets by lipophagy (FIG. 5).

IL-17 = experiment: Pro-inflammatory cytokine levels in HT-29 cells: IL-17; type: cell-based, human
Description: (§2) The fibrosis associated pro-inflammatory cytokines include soluble IL-6, TNFα, and IL-17, which are contributors to the progression of NAFLD to NASH with fibrosis.

TNFα = experiment: Pro-inflammatory cytokine levels in HT-29 cells: TNFα; type: cell-based, human
Description: as §2

CEREP Safety 44 panel = CEREP Safety 44 panel screen
Sigma1 = Sigma1 (Homo sapiens, UniProt Q99720); conditions: read-out: Ki (binds Sigma1)
Sequence of Sigma1 (Q99720 whole entry): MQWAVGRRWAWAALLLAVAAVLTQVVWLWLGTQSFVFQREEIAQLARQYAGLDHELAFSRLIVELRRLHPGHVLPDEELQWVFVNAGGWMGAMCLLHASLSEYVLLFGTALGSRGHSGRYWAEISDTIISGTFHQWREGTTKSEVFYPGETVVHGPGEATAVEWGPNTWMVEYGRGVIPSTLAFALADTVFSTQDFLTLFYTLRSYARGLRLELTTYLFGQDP

liver = conditions: even at doses that exceed the concentrations proposed herein; cited from earlier work
Oral bioavailability = conditions: in vivo
mouse = experiment: Tumor xenograft experiments with daily oral dosing: tolerability; type: in vivo; conditions: daily oral dosing extended beyond 4 weeks
lipid droplets = experiment: Oleic acid, cholesterol and glucose induced lipid droplets; type: cell-based; conditions: by lipophagy
Description: as §1

LNCaP cells = experiment: DHT-induced lipid droplet formation and accumulation in LNCaP cells (confocal, HCS-LipidTox stain); type: cell-based; conditions: 72 h 1 nM DHT, compound 10 uM for the final 16 hours
Procedure: FIGS. 4A-4B illustrate the finding that Sigma1 (σ1) knockdown by transduction of SIGMAR1 targeted shRNA using a lentiviral vector abrogates lipid droplet (LD) accumulation, in accordance with some embodiments. FIG. 4A: Confocal micrographs of LNCaP cells treated with 72 hours (72 h) with dihydrotestosterone (DHT) to induce the formation and accumulation of LDs. Non-specific Control shRNA was compared to SIGMAR1 transcript selective shRNAs in lentiviral vectors. σ1 shR #4=MISSION/SigmaAldrich clone TRCN0000061010: σ1 shR #5=MISSION/SigmaAldrich clone TRCN0000061008. White boxes indicate areas magnified and shown immediately below. Note nearly complete elimination of LDs. FIG. 4B: Immunoblot confirming knockdown of Sigma1 by lentiviral Sigma1 (σ1) shRNAs. LDs are stained with HCS-LipidTox fluorescent stain in red. Blue DAPI stained nuclei.
FIG. 5 illustrates the finding that pharmacological Sigma1 modulator/inhibitor 1-(4-Iodophenyl)-3-(2-adamantyl)guanidine (IPAG) eliminates lipid droplets (LDs), in accordance with some embodiments. Confocal micrographs of LNCaP cells treated with 72 hours (72 h) with 1 nM dihydrotestosterone (DHT) to induce the formation and accumulation of LDs. In the far right panel, the LNCaP cells were treated with a prototypic Sigma1 selective small molecule compound, IPAG (10 uM), for the final 16 hours of the 72 h DHT treatment period. […]

In the case of `N=C(NCCCOc1ccc(F)cc1)Nc1ccc(Cl)cc1` [CT-189, 1-(3-(4-fluorophenoxy)propyl)-3-(4-chlorophenyl)guanidine], the “level of whitening of brown adipose tissue” value (HFD fed mice; HFD fed mice (8-week HFD), oral) is reported as “significantly reduced”, the “level of liver fat” value (HFD fed mice; HFD fed mice, oral (PO 3 days per week)) is reported as “significantly reduced” and the “level of IL-17” value (IL-17) is reported as “suppresses levels”. For the same compound, the “level of TNFα” value (TNFα) was “suppresses levels”, the off-target liabilities (CEREP Safety 44 panel) was “limited off-target liabilities” and the Ki (Sigma1) was 0.038 µM. The liver toxicity (liver) was “does not induce liver toxicity”, the oral bioavailability (Oral bioavailability) was “orally bioavailable” and the “changes in mouse behavior” value (mouse) was “no detectable changes”. The “changes in mouse body weight” value (mouse) was “no detectable changes”.
With `N=C(Nc1ccc(I)cc1)NC1C2CC3CC(C2)CC1C3` (stereo not drawn) [IPAG, 1-(4-Iodophenyl)-3-(2-adamantyl)guanidine] the “oleic acid, cholesterol, and glucose induced lipid droplets” value (lipid droplets) was “eliminate” and the “lipid droplets (LDs)” value (LNCaP cells) was “eliminates”.
